Test results reported in patent US20200085705A1, “Method of Encapsulating Compounds” (AGENCY FOR SCIENCE, TECHNOLOGY AND RESEARCH, priority 2016, published 2020).

Test: Titration of polyelectrolytes and ICs with MG (zeta potential, Dh, I/c)
Type: physicochemical
Conditions: titration of PAA-b-PEO, PArg and ICs with MG, 10 mM NaCl
Method: Dynamic (DLS) and static (SLS) light scattering measurements were performed with Brookhaven Instruments, 488 nm and 633 nm, 15 W Ion Laser System, equipped with Avalanche Photodiode Detector; DLS measurements were conducted at 90° detection angle. The light scattering titrations were performed with Malvern Zetasizer equipped with auto-titrator, at detection angle of 173°. Samples from loading experiments were analyzed with Shimadzu UV spectrophotometer (UV-3600).
MG was loaded into the ICs by simple mixing the respective solutions at predetermined ratios. FIG. 3 presents the results of titrations of the polyelectrolytes and ICs consisting of these polyelectrolytes with MG. Upon mixing, we observed no change in zeta potential except for slight increase in case of PArg at the beginning of titration. […] We observed small changes in hydrodynamic diameter (DO and normalized scattering intensity (I/c) of the aggregates, indicating bonding. This was later confirmed with NR studies.

COc1ccc(O[C@@H]2O[C@H](CO)[C@@H](O)[C@H](O)[C@H]2O)cc1 [MG, 4-methoxyphenyl β-D-glucopyranoside]
chargeability of MG (zeta potential upon mixing): not chargeable
